Measurements from patent US7288631B2 (Euroscreen, s.a., priority 1997, dated 2007).

What was measured:
Type in all cases: cell-based
P2Y11 receptor [1] = target: T1, P2Y11 receptor (Homo sapiens, UniProt Q96G91, DUP173-173); assay: Inositol trisphosphate (IP3) accumulation in 1321N1 astrocytoma cells transfected with the new receptor; details: for Effect on IP3 accumulation in concentration-action curves: large range of concentrations, FIG. 4A; for Agonist efficacy compared with ATP: same for the phosphoinositide and cAMP pathways; for IP3 accumulation in response to nucleotide: 100 μM, pool of G418-resistant P2Y11-transfected 1321N1 clones
T1 construct: expressed in transfected cells; host or cells: 1321N1 astrocytoma cells and CHO-K1 cells, G418-selected, pEFIN3 bicistronic vector
T1 sequence (Q96G91 with tags, fused parts or gaps DUP173-173): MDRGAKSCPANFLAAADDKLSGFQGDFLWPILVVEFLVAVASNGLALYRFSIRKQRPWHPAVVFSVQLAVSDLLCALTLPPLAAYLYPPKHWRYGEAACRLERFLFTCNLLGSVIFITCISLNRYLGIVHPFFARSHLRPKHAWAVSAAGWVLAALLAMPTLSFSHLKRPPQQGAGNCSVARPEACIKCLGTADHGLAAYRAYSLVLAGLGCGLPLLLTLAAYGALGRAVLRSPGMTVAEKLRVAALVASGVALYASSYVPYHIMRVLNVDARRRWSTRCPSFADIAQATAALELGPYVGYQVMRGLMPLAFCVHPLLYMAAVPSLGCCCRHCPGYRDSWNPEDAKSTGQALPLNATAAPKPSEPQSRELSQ
Description: (§1) The complete sequence of the new receptor according to the invention was subcloned between the Hind III and Nhe I sites of the bicistronic pEFIN3 expression vector. 1321N1 and CHO-K1 cells were transfected with the recombinant pEFIN3 plasmid or with the plasmid alone using the calcium phosphate precipitation method as described (19). The transfected cells were selected with 400 μg/ml G418 in complete medium (10% FCS, 100 units/ml penicillin, 100 μg/ml streptomycin and 2.5 μg/ml amphotericin B in Duibecco's modified Eagle's medium (DMEM)) two days after transfection and maintained in the same medium (10).
1321N1 cells were labelled for 24 hours with […] [^3H] inositol in inositol free DMEM containing 5% FCS, antibiotics, amphotericin, sodium pyruvate and 400 μg/ml G418. Cells were washed twice with Krebs-Ringer Hepes (KRH) buffer of the following composition (124 mM NaCl, 5 mM KC1, 1.25 mM MgSO4, 1.45 mM CaCl2, 1.25 mM KH2PO4, 25 mM Hepes (pH:7.4) and 8 mM glucose) and incubated in the same medium for 30 min. The cells were then challenged by various nucleotides for 30 s. The incubation was stopped by the addition of an ice cold 3% perchioric acid solution. IP were extracted and separated on Dowex columns as previously described (20).
(§2) The complete sequence of the new receptor was introduced in the pEFIN3 expression vector in order to transfect the 1321N1 astrocytoma cell line, used previously to characterize several P2Y subtypes (6, 10, 12). The pool of G418-resistant clones was tested for its functional response to several nucleotides.

P2Y11 receptor [2] = target: T1, P2Y11 receptor; assay: cAMP accumulation in CHO-K1 cells transfected with the new receptor; details: for cAMP content in response to nucleotide: 100 μM, pool of G418 resistant P2Y11-transfected CHO-K1 clones; for Inhibition of the cAMP response to ATP (30 μM): indomethacin 10 μg/ml from 30 min before, 8 (p-sulfophenyl) theophylline 100 μM
Description: as §1
(§3) Stably transfected CHO-K1 or 1321N1 cell lines were spread on Petri dishes (150.000 cells per dish) and cultured in Ham's F12 or DMEM medium containing 10% FCS, antibiotics, amphotericin, sodium pyruvate and 400 μg/ml G418. Cells were preincubated for 30 min in KRH buffer with Rolipram (25 μM) and incubated for different times in the presence of the agonists (15 min in most experiments). The incubation was stopped by the addition of 1 ml HC1 0.1 M. The incubation medium was dried up, resuspended in water and diluted as required. Cyclic AMP was quantified by radioimmunoassay after acetylation as previously described (21).
(§4) A much lower but significant endogeneous response due to the degradation of adenine nucleotides into adenosine was also obtained in the 1321N1 cells transfected with the vector alone. […] We therefore used CHO-K1 cells in order to characterize the coupling of the new receptor to the cAMP pathway. A pool of G418 resistant CHO-K1 clones was first tested for its response to several nucleotides at a concentration of 100 μM. […] The rank order of potency was the same as in the inositol phosphate study on 1321N1 cells.

P2Y11 receptor [3] = target: T1, P2Y11 receptor; assay: [Ca2+]i measurements on 1321N1 transfected cells; details: 10 μM
Description: as §2, with “nucleotides. […] The effect of ADP and 2MeSADP were minimal.” for “nucleotides.”

P2Y11 receptor [4] = target: T1, P2Y11 receptor; assay: cAMP measurement in 1321N1 cells transfected with the new receptor
Description: as §3, §4

[5] = system: CHO-K1 cells transfected with the vector alone; assay: cAMP in CHO-K1 cells transfected with the vector alone or untransfected; details: 100 μM
Description: as §1
as §3, with “(21). […]” for “(21).”

Compound	IP3 accumulation in response to nucleotide (P2Y11 receptor [1]; 30 s)	cAMP content in response to nucleotide (P2Y11 receptor [2])	also measured
CSc1nc(N)c2ncn([C@@H]3O[C@H](COP(=O)(O)OP(=O)(O)O)[C@@H](O)[C@H]3O)c2n1 [2MeSADP, 2-methylthio-ADP]	–	–	Effect on IP3 accumulation in concentration-action curves (P2Y11 receptor [1]): minimal; Agonist efficacy compared with ATP (P2Y11 receptor [1]): almost inactive
O=c1ccn([C@@H]2O[C@H](COP(=O)(O)OP(=O)(O)O)[C@@H](O)[C@H]2O)c(=O)[nH]1 [UDP]	inactive	completely inactive	–
CSc1nc(N)c2ncn([C@@H]3O[C@H](COP(=O)(O)OP(=O)(O)OP(=O)(O)O)[C@@H](O)[C@H]3O)c2n1 [2MeSATP, 2-methylthio-ATP]	–	–	EC50 (P2Y11 receptor [1]; P2Y11-transfected 1321N1 cells, 30 s, means±range of two independent experiments): 118 ± 15 µM; Agonist efficacy compared with ATP (P2Y11 receptor [1]): same maximal effect than ATP but presented a lower potency
COc1ccc2c(c1)c(CC(=O)O)c(C)n2C(=O)c1ccc(Cl)cc1 [indomethacin, Indomethacin]	–	–	Inhibition of the cAMP response to ATP (30 μM) (P2Y11 receptor [2]): inhibited neither
Nc1ncnc2c1ncn2[C@@H]1O[C@H](COP(=O)(O)OP(=O)(O)OP(=O)(O)OP(=O)(O)OC[C@H]2O[C@@H](n3cnc4c(N)ncnc43)[C@H](O)[C@@H]2O)[C@@H](O)[C@H]1O [AP4A]	inactive	–	–
Nc1ncnc2c1ncn2[C@@H]1O[C@H](COP(=O)(O)OP(=O)(O)O)[C@@H](O)[C@H]1O [ADP]	inactive	completely inactive	[Ca2+]i response (P2Y11 receptor [3]): inactive; Effect on IP3 accumulation in concentration-action curves (P2Y11 receptor [1]): minimal
Pertussis toxin	–	–	Effect on the ATP response (IP3) (P2Y11 receptor [1]; pertussis toxin 50 ng/ml, 24 h pretreatment): no effect
Nc1ncnc2c1ncn2[C@@H]1O[C@H](CO)[C@@H](O)[C@H]1O [adenosine]	inactive	completely inactive	–
O=c1ccn([C@@H]2O[C@H](COP(=O)(O)OP(=O)(O)OP(=O)(O)O)[C@@H](O)[C@H]2O)c(=O)[nH]1 [UTP]	inactive	completely inactive	–
Nc1ncnc2c1ncn2[C@@H]1O[C@H](COP(=O)(O)OP(=O)(O)OP(=O)(O)OP(=O)(O)OP(=O)(O)OP(=O)(O)OC[C@H]2O[C@@H](n3cnc4c(N)ncnc43)[C@H](O)[C@@H]2O)[C@@H](O)[C@H]1O [AP6A]	inactive	–	–
Nc1ncnc2c1ncn2[C@@H]1O[C@H](COP(=O)(O)OP(=O)(O)OP(=O)(O)O)[C@@H](O)[C@H]1O [ATP]	strong inositol trisphosphate (IP3) accumulation	strong increase in the cAMP content	[Ca2+]i response (P2Y11 receptor [3]): response; cAMP response (P2Y11 receptor [4]): strong cAMP increase; cAMP content in vector-alone cells [5]: inactive; cAMP response after short stimulation (P2Y11 receptor [2]; after 2 min of stimulation, CHO-K1): significant cAMP response
Nc1ncnc2c1ncn2[C@@H]1O[C@H](COP(=O)(O)O)[C@@H](O)[C@H]1O [AMP]	inactive	completely inactive	–
Cn1c(=O)c2[nH]c(-c3ccc(S(=O)(=O)O)cc3)nc2n(C)c1=O [8 (p-sulfophenyl) theophylline]	–	–	Inhibition of the cAMP response to ATP (30 μM) (P2Y11 receptor [2]): inhibited neither
